Laboratory results from ChEMBL document CHEMBL1201862, “PubChem BioAssay data set” (2004).
Activity calls are given as the source filed them.

Experiments:
[1] = molecular target: Sphingosine 1-phosphate receptor 1 (Homo sapiens, UniProt P21453); assay: Fluorescence-based counterscreen assay for S1P4 agonists: Cell-based dose response high throughput screening assay to identify agonists of the Sphingosine 1-Phosphate Receptor 1 (S1P1). [Related pubchem assays (depositor defined):AID1509, AID1523, AID1801, AID463107, AID463118, AID463119, AID463122, AID463123, AID463129, AID463225, AID504400, AID504460]; assay type: functional
Chain of Sphingosine 1-phosphate receptor 1 (P21453 whole entry): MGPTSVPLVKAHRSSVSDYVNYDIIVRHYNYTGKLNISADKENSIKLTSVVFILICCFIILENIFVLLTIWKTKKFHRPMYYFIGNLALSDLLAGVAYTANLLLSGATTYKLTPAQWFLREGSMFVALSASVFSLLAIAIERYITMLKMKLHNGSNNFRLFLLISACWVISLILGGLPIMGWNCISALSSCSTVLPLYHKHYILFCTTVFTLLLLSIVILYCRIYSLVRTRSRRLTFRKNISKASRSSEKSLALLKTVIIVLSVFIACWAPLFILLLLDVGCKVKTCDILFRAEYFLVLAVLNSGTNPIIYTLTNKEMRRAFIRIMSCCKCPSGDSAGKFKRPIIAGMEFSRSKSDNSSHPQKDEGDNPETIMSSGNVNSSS

[2] = test system: Streptococcus sp. 'group A'; assay: Streptococcus pyogenes SK(-)GAS viability under kanamycin – luminescence, BacTiterGlo, confirmation, counter-screen for streptokinase expression inhibitor project, dose response (AID 1900); assay type: functional, organism-based
Streptokinase A = molecular target: T1, Streptokinase A (Streptococcus pyogenes serotype M1, UniProt P10520); assay: viability-normalized secreted streptokinase activity reduction – plasminogen activation absorbance, OD405, dose response (AID 1914); assay type: functional, Streptococcus pyogenes M1 GAS;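 further: secreted streptokinase activity via plasminogen activation per viability signal from cell pellet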
T1 sequence (P10520 whole entry): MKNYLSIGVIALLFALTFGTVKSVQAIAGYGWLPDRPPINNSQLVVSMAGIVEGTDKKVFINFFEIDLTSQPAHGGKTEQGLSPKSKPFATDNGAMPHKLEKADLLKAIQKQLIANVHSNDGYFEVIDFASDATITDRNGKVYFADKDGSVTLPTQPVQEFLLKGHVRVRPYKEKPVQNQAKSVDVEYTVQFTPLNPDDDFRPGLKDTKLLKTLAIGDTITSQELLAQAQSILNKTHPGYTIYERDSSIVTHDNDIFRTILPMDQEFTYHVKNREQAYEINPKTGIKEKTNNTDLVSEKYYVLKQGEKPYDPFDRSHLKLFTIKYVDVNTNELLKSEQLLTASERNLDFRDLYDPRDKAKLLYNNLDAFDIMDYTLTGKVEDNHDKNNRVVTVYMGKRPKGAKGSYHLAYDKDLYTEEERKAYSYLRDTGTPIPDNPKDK

[3] = molecular target: T2, Sphingosine 1-phosphate receptor 4 (Homo sapiens, UniProt O95977); assay: Fluorescence dose response cell-based high throughput screening assay for agonists of the Sphingosine 1-Phosphate Receptor 4 (S1P4). [Related pubchem assays: 1509 (Primary screen.), 1523 (Confirmation screen in triplicates.)]; assay type: functional
T2 sequence (O95977 whole entry): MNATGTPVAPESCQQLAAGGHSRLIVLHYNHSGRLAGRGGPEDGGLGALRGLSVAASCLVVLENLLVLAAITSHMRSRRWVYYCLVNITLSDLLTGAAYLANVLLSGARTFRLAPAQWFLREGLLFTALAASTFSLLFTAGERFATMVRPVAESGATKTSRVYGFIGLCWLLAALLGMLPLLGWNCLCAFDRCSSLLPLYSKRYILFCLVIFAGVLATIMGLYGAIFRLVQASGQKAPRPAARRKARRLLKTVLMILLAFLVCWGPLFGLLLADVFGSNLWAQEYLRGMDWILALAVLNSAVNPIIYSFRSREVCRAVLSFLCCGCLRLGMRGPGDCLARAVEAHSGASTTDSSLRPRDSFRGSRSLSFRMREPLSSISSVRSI

[4] = viability of PTEN-deleted HCT116 cells – cell-based, HCT116 PTEN knockout, dose response (AID 1047); assay type: functional;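 further: HCT116 colon tumor cells with PTEN knocked out; cells exposed to compound for 60 hours before readout; potency for loss of cell viability measured by luminescence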
[5] = viability of HCT116 lacking mutant beta-catenin – cell-based, human colon tumor, dose response (AID 1045); assay type: functional;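 further: HCT116 colon tumor cells with beta catenin knocked out; cells exposed to compound for 60 hours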
Streptococcus = assay: GAS UMAA2166 growth inhibition – luminescence, BacTiterGlo, counter-screen for streptokinase expression inhibitor project, dose response (AID 1915); assay type: functional, organism-based;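 further: potency for reduction of bacterial viability or growth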
[6] = molecular target: Sphingosine 1-phosphate receptor 2 (Homo sapiens, UniProt O95136); assay: Dose Response Cell Based Assay for Agonists of the S1P2 Receptor. [Related pubchem assays: 729, 736, 843 ]; assay type: functional
Chain of Sphingosine 1-phosphate receptor 2 (O95136 whole entry): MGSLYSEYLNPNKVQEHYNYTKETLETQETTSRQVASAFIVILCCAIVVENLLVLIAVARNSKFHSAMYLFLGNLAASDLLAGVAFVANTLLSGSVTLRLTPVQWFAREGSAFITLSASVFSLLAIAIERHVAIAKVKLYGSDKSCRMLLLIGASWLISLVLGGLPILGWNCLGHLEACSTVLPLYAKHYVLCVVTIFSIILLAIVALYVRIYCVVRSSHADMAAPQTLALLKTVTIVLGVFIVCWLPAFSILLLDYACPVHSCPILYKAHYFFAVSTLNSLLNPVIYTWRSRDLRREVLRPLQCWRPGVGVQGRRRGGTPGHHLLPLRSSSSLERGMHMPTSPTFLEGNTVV

[7] = molecular target: Neurotensin receptor type 1 (Homo sapiens, UniProt P30989); assay type: functional;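 further: Image-based confirmatory dose-response assay measuring agonist activity at NTR1; NTR1-expressing U2OS osteosarcoma cells imaged for beta-arrestin GFP spot formation; agonist potency where compounds increase beta-arrestin recruitment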
Chain of Neurotensin receptor type 1 (P30989 whole entry): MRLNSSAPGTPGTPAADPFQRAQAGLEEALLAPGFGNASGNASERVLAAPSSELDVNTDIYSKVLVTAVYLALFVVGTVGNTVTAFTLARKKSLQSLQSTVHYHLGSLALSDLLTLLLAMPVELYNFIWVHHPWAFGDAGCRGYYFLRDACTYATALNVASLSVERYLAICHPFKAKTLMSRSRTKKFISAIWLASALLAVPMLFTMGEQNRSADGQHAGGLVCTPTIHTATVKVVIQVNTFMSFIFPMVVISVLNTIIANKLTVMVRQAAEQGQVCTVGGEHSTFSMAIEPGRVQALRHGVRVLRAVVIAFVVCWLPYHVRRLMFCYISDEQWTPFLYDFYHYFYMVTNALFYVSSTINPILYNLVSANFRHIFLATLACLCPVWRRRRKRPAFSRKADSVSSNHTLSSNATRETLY

Vero = assay: cells; assay type: functional; details: Chlorocebus sabaeus
Protein Tat = molecular target: T3, Protein Tat (Human immunodeficiency virus type 1 group M subtype B (isolate HXB2)(HIV-1), UniProt P04608); assay type: functional;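 further: tat binding to TAR RNA read out by fluorescence polarization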
T3 sequence (P04608 whole entry): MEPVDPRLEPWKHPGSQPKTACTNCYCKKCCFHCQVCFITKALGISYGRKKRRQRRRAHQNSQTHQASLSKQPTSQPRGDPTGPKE

[8] = viability loss in Vero cells – cytotoxicity control for Vif-APOBEC3G degradation inhibitor project, dose response (AID 1117358); assay type: functional; details: Vero
Bcl-2-related protein A1 = molecular target: T4, Bcl-2-related protein A1 (Mus musculus, UniProt Q07440); assay type: functional;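 further: confirmatory dose–response counterscreen on Bfl-1, used to check hits from a UBC13 polyubiquitin inhibitor campaign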
T4 sequence (Q07440 whole entry): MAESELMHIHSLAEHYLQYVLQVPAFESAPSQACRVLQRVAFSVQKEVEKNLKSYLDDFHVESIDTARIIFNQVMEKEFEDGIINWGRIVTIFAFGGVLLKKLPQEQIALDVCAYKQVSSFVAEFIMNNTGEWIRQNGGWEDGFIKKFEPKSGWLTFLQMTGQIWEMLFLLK

[9] = molecular target: T5, Ubiquitin-conjugating enzyme E2 N (Homo sapiens, UniProt P61088); assay type: functional
T5 sequence (P61088 whole entry): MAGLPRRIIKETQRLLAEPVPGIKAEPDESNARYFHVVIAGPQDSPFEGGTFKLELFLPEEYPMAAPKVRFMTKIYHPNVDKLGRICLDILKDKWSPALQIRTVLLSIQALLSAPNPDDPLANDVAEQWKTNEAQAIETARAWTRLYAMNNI

[10] = molecular target: T5, Ubiquitin-conjugating enzyme E2 N; assay type: functional; remark: listed apart in the source

In the case of `NS(=O)(=O)c1ccc(N2N=C(c3ccc(Br)cc3)CC2c2ccc(F)cc2)cc1` (stereo not given), the EC50 [1] is reported as 2.2 µM (active), the EC50 [2] is reported as 2.62 µM (active) and the EC50 (Streptokinase A) is reported as > 150 µM (not active). The EC50 [3] was 3.33 µM (active), the EC50 [4] was 14.1 µM (active) and the EC50 [5] was 15.4 µM (active). For the same molecule, the EC50 (Streptococcus) was 5.44 µM (active), the EC50 [6] was 0.877 µM (active) and the EC50 [7] was 25 µM (inactive). For the same molecule, the CC50 (Vero) was 17.1 µM (active), the IC50 (Protein Tat) was > 100 µM (active) and the CC50 [8] was > 40 µM (active).
In the case of `CCCCN(CC)CCNC(=O)c1cc2c(=O)n(CC)c3ccccc3c2s1`, the IC50 (Bcl-2-related protein A1) is reported as > 20 µM (inactive), the IC50 [9] is reported as 18.1 µM (active) and the IC50 [10] is reported as 5.26 µM (active).
